86 compounds from ChEMBL document CHEMBL1157539, “Thousands of chemical starting points for antimalarial lead identification” (Nature, 2010) can be followed below.

This test concerns Plasmodium falciparum. The experiment in a line: GSK_TCMDC: Inhibition of Plasmodium falciparum 3D7 in whole erythrocytes, using parasite LDH activity as an index of growth. Type of test: functional, organism-based. Particulars: Plasmodium falciparum, 3D7.
On to `CCC(CC)n1c(C)cc2c3c(N)nc(N)nc3ccc21`, for which the XC50 amounted to 3.2 nM.

`CC1CN(c2ccc(NC(=O)c3cccs3)cc2)CCN1Cc1cccc(F)c1` (stereo unspecified) registered an XC50 of 492 nM.

Regarding `CC(C)c1ccc(NC(=O)c2ccc(NCCCN(C)Cc3ccccc3)c([N+](=O)[O-])c2)cc1`, the XC50 amounted to 683 nM.

In the case of `CCC(C)c1cnc2nc(N)nc(N)c2c1C` (stereo unspecified), the XC50 worked out at 444 nM.

In turn, `CN1CCN(Cc2nc(-c3ccc4c(Nc5ccc(F)c(O)c5)ccnc4c3)cs2)CC1` yielded an XC50 of 171 nM.

In turn, `COc1ccc(-c2cccc(NC(=O)c3ccc(C#N)cc3)c2)cc1CNC(C)C` registered an XC50 of 808 nM.

On to `COc1cc2ccccc2c(CNCCCCCCNCc2c(OC)c(OC)cc3ccccc23)c1OC`, for which the XC50 was 1110 nM.

`CC(=Nc1ccc(Cl)c(Cl)c1)N(C)C` came in with an XC50 of 540 nM.

As for `CCCCn1c(C(C)Oc2ccc(Cl)cc2Cl)nc2cc(S(N)(=O)=O)ccc21` (stereo unspecified), the XC50 stood at 707 nM.

For the compound `CC[C@H]1CN2CC[C@H]1C[C@H]2[C@H](O)c1cc(-c2ccc(F)cc2)nc2ccc(OC)cc12`, the XC50 amounted to 49.7 nM.

In turn, `CC(C)[C@H](NC(=O)c1ccc(O)c(-c2ccc(Cl)c(Cl)c2)c1)C(=O)NCCN1CCOCC1` came in with an XC50 of 911 nM.

The compound `COc1ccc(NC(=O)CCNc2cc(C)nc(NCc3ccccc3C)n2)cc1` had an XC50 of 1070 nM.

`Nc1nccc2ccc(Oc3ccncc3)cc12` showed an XC50 of 481 nM.

`CC(=O)Nc1ncc(C(=O)Nc2cccc(-c3ccc(-c4nc5cccc(C)c5[nH]4)cc3)c2)s1` had an XC50 of 643 nM.

`O=C(Nc1ccc2c(c1)CN(Cc1ccc(N3CCCC3)o1)CCC2)c1ccoc1` returned an XC50 of 953 nM.

`N#Cc1ccccc1C(=O)N(Cc1cncn1Cc1cccc(F)c1)CC1CC1` came in with an XC50 of 734 nM.

With `O=C(/C=C/c1ccc(Cl)c(Cl)c1)NCCCCCN1CCC(C(=O)Nc2ccc(Cl)cc2)CC1`, the XC50 is 776 nM.

In turn, `CC(Cc1ccc(CN(CC(N)=O)Cc2ccc(CC(C)NCCc3cccc(Cl)c3)cc2)cc1)NCCc1cccc(Cl)c1` (stereo unspecified) displayed an XC50 of 665 nM.

Consider `CCCCN(CCCC)CCNC(=O)c1ccc(-c2nc3cc(Cl)ccc3[nH]2)c(OCC)c1`, for which the XC50 amounted to 570 nM.

In turn, `CC(=O)c1ccc2c(c1)C(NC(=O)c1cccc(Cl)c1Cl)C(CO)C(C)(C)O2` (stereo unspecified) gave an XC50 of 687 nM.

For `Cc1sc2cc(Cl)cc(Cl)c2c1S(=O)(=O)Nc1ccc2nccc(N3CCNCC3)c2c1`, the XC50 came out at 124 nM.

`CCCN1CC[C@@H](CCCc2ccnc3ccc(O)cc23)[C@@H](CC)C1` displayed an XC50 of 889 nM.

In turn, `CC(=O)Oc1cc(C(=O)Nc2ccc(Cl)cc2)cc2ccccc12` returned an XC50 of 856 nM.

`COc1ccc(CCn2c(C3CCCCC3)nc3oc4ccccc4c(=O)c3c2=O)cc1` displayed an XC50 of 952 nM.

On to `CCC(CC)OC(=O)C(C)c1cccc(C(=O)c2ccccc2)c1` (stereo unspecified), for which the XC50 was 833 nM.

Turning to `CC1CN(c2ccc(NC(=O)c3ccsc3)cc2C(=O)N2CCN(Cc3ccc(C(C)(C)C)cc3)CC2)CC(C)O1` (stereo unspecified), the XC50 came to 866 nM.

`COc1ccc(Cl)cc1NC(=O)CN(C)C(=O)c1cnn(-c2ccccc2)n1` gave an XC50 of 228 nM.

In the case of `O=C(NCCN1CCCC1)c1ccc(-c2ccc(-c3nc4cc(C(F)(F)F)ccc4[nH]3)s2)cc1`, the XC50 is 752 nM.

`Cc1c(C(=O)NCc2ccncc2)sc2nc(-c3cccc([N+](=O)[O-])c3)cn12`: the XC50 was determined as 913 nM.

As to `Cc1ccc(CNC(=N)NC(=O)c2nc(Cl)c(NCc3ccc(Cl)cc3)nc2N)c(C)c1`, the XC50 was found to be 167 nM.

`CCC(CCON1C(N)=NC(N)=NC1(C)C)c1ccc(Cl)cc1` (stereo unspecified) registered an XC50 of 3.2 nM.

As to `CC(C)(C)COC(=O)c1ccc(NC(=O)N[C@@H](Cc2ccc(O)cc2)C(=O)NC2CCN(Cc3ccc(O)cc3)C2)cc1` (stereo partly specified), the XC50 was found to be 668 nM.

As for `O=S(=O)(NCCN1CCCC1)c1ccc(-c2ccc(CNCc3ccc(F)cc3)cc2)cc1`, the XC50 came out at 794 nM.

Compound `Cc1cccc(Nc2nccc(Nc3cccc(C(=O)NCCN4CCOCC4)c3)n2)c1` gave an XC50 of 1420 nM.

With `N#Cc1cncc(-c2nc3c(N4CCCC(N)C4)cccc3n2CCNCc2ccccc2)c1` (stereo unspecified), the XC50 is 768 nM.

Take `CCNc1cc(C(=O)N[C@@H](Cc2ccccc2)[C@H](O)CNC2CCC(F)(F)CC2)c(F)c(N2CCCCS2(=O)=O)c1`: the XC50 worked out at 212 nM.

Consider `Nc1nc(N)c2c(ccn2Cc2cc3c(cc2Cl)OCO3)n1`, for which the XC50 came to 765 nM.

Regarding `CCN(CC)CCCNc1ncc2c(-c3ccc(NC(=O)Nc4cc(C(F)(F)F)ccc4F)cc3)nn(C)c2n1`, the XC50 came to 220 nM.

In turn, `Cn1c(C2CC3CCC(C2)N3CC2CCC(NC(=O)/C=C/c3ccc(Cl)c(Cl)c3)CC2)nc2ccccc21` (stereo unspecified) gave an XC50 of 563 nM.

As to `COc1ccc(NC(=O)[C@H](CC(C)C)Nc2cc(C)nc(NCCc3ccc(F)cc3)n2)cc1`, the XC50 stood at 925 nM.

For `O=C(NC1CCCc2ccccc21)[C@@H]1CCCN1C(=O)c1ccc(O)c(-c2cccc([N+](=O)[O-])c2)c1` (stereo partly specified), the XC50 turned out to be 678 nM.

`CNC(=O)c1ccccc1Nc1nc(Nc2cccnc2)ncc1C` displayed an XC50 of 101 nM.

Consider `Nc1nc2ccc(S(=O)(=O)Nc3ccc(C(=O)N[C@@H](CCC(=O)O)C(=O)O)c(F)c3)cc2c(=O)[nH]1`, for which the XC50 is 824 nM.

`Oc1ccccc1CN(CCCN(Cc1ccccn1)Cc1ccccc1O)Cc1ccccn1` displayed an XC50 of 1060 nM.

Compound `S=C(NCCc1ccc(Cl)cc1)N1CCC(CN2CCC(c3c[nH]c4ccccc34)CC2)CC1` had an XC50 of 1000 nM.

`NCc1ccc(CNCc2cccc(-c3ccc(-c4nc5cc(C(F)(F)F)ccc5[nH]4)cc3)c2)cc1` had an XC50 of 261 nM.

Consider `COc1ccc2nccc(N3CCN(CCNCc4ccc5c(n4)NC(=O)CS5)CC3)c2c1`, for which the XC50 was determined as 950 nM.

`CCCCSc1ccc(CNCCCCCCNCc2ccc(SCCCC)c3ccccc23)c2ccccc12`: the XC50 amounted to 631 nM.

For `CC(Cc1ccc(OCCN2CCN(c3ccccc3)CC2)cc1)NCC(O)c1cccc(Cl)c1F` (stereo unspecified), the XC50 was determined as 873 nM.

As for `N#Cc1ccc2[nH]c(-c3cc(-c4cccc(F)c4)cnc3N)nc2c1`, the XC50 worked out at 193 nM.

In turn, `O=C(Nc1cccc(-c2nn3ccccc3c2-c2ccnc(Nc3ccc(-c4cc[nH]n4)cc3)n2)c1)c1c(F)cccc1F` showed an XC50 of 189 nM.

`CC(=NNC(S)=NC(c1ccccc1)c1ccccc1)c1ccccn1` gave an XC50 of 896 nM.

Consider `COc1cc2nc(NCc3ccccc3)nc(NCc3ccccc3)c2cc1OC`, for which the XC50 was found to be 151 nM.

For `CCOc1ccc(Br)cc1/C=C/C(=O)Nc1ccc2c(c1)CN(C)CCC2`, the XC50 came out at 824 nM.

The compound `Cc1nc2ccc3ccc(CNc4ccc(C(=O)CC(CCC(=O)O)C(=O)O)cc4)cc3c2c(=O)[nH]1` (stereo unspecified) came in with an XC50 of 35.7 nM.

In turn, `O=C(CNC1CCCCC1)Nc1cccc(C(=O)Nc2cccc(C(F)(F)F)c2)c1` returned an XC50 of 416 nM.

For the compound `N#Cc1ccc2c(c1)CN(CCC1CCC(NC(=O)c3cc4cnccc4[nH]3)CC1)CC2` (stereo unspecified), the XC50 turned out to be 801 nM.

Consider `Cc1ccc(N)cc1-c1nc(NC2CC(C)(C)NC(C)(C)C2)nc2c1ccc(=O)n2-c1c(F)cccc1F`, for which the XC50 came to 842 nM.

Consider `Cc1ccc2cc(NC(=O)CCCCCCCON3C(N)=NC(N)=NC34CCCCC4)ccc2n1`, for which the XC50 came out at 92.5 nM.

`Cc1cc(=NN=Cc2ccc(F)cc2)c2cccc(C)c2[nH]1` registered an XC50 of 779 nM.

`CCNc1cc(C(=O)N[C@@H](Cc2ccccc2)[C@H](O)CNCCc2ccccc2)cc(N2CCCC2=O)c1` showed an XC50 of 844 nM.

On to `CC(C)CNC(=O)CN1C(=O)C(c2ccccc2)(c2ccccc2)N=C1N`, for which the XC50 came out at 815 nM.

Compound `CC(C)C(C)(C#N)NC(=O)CSc1nc2ccc([N+](=O)[O-])cc2s1` (stereo unspecified) had an XC50 of 1030 nM.

`O=C(Cc1cccnc1)Nc1cccc(-c2cccc(-c3nc4cc(C(F)(F)F)ccc4[nH]3)c2)c1` gave an XC50 of 677 nM.

Consider `S=C(NCCCCCN1CCC(c2c[nH]c3ccccc23)CC1)Nc1cccc(I)c1`, for which the XC50 came to 845 nM.

`O=C(c1cc(-c2cccs2)n[nH]1)N1CCN(S(=O)(=O)c2ccc(Cl)cc2)CC1` had an XC50 of 292 nM.

As for `Nc1ccc2[nH]cc(C3CCN(CC4CCC(NC(=O)/C=C/c5ccc(Cl)c(Cl)c5)CC4)CC3)c2n1` (stereo unspecified), the XC50 came out at 731 nM.

For the compound `CCCN(CC)CCOC(=O)c1ccccc1`, the XC50 stood at 739 nM.

In the case of `Cc1sc2nc(CN3CCCC3)nc(-n3c(NCCO)nc4ccccc43)c2c1C`, the XC50 was found to be 1240 nM.

Turning to `CCCNC[C@@H](O)[C@H](Cc1ccccc1)NC(=O)c1cc(NCC)cc(N2CCCCS2(=O)=O)c1`, the XC50 came to 224 nM.

As for `O=S(=O)(c1cc(Cl)c(Cl)cc1Cl)N1CCCCC(c2ccc(C(F)(F)F)cc2)=N1`, the XC50 was 205 nM.

The compound `Cc1nc2ccccn2c1C1(O)C(=O)Nc2c(Cl)cc(Cl)cc21` (stereo unspecified) came in with an XC50 of 1590 nM.

With `CC1CCCN(S(=O)(=O)c2cc(Br)cc3c2N(C(=O)C2CC2)CC3)C1` (stereo unspecified), the XC50 is 724 nM.

As for `CN1CCCC(CN2CCN(Cc3ccc(-c4cccc(-c5nc6cc(F)ccc6[nH]5)c4)cc3)CC2)C1` (stereo unspecified), the XC50 was found to be 184 nM.

Consider `CC(=O)N1N=C(c2ccc(Cl)cc2)Sc2c1nc(C1CCCCC1)n2C(C)=O`, for which the XC50 turned out to be 249 nM.

`COc1ccc(OCC(=O)Nc2cc(-c3nc4ccccc4[nH]3)ccc2Cl)cc1` displayed an XC50 of 903 nM.

Compound `COc1ccc(C2C(C(=O)Nc3ccc4c(c3)OCO4)c3cc(OC)c(OC)cc3C(=O)N2C)cc1` (stereo unspecified) showed an XC50 of 1040 nM.

In turn, `O=C(Nc1cccc(-c2cccc(-c3nc4cc(C(F)(F)F)ccc4[nH]3)c2)c1)c1csnn1` gave an XC50 of 238 nM.

For `C[C@@H](Oc1cc(-n2cnc3ccc(NC(=O)NC(C)(C)C)cc32)sc1C(N)=O)c1ccccc1Cl`, the XC50 is 330 nM.

As for `Nc1ncc(-c2ccsc2)c2ccc(-c3cnc[nH]3)cc12`, the XC50 was determined as 573 nM.

On to `Cc1nc(-c2cccc(Nc3nccc(NCC(O)c4ccc(C(F)(F)F)cc4)n3)c2)cs1` (stereo unspecified), for which the XC50 was found to be 511 nM.

Compound `CN1CCN(c2ccnc3ccc(NC(=O)Nc4cccc(C#N)c4)cc23)CC1` showed an XC50 of 799 nM.

Turning to `O=C(Nc1ccc(Cl)cc1)c1ccc(S(=O)(=O)NCC2CCN(CC3CCCCC3)CC2)cc1`, the XC50 amounted to 857 nM.

`CCCCCCP(=O)(COc1ccc(CCN(CC(O)COc2cccc3[nH]c(C(N)=O)cc23)CC(O)COc2cccc3[nH]c(C(N)=O)cc23)cc1)OCCCC` (stereo unspecified) displayed an XC50 of 724 nM.

In turn, `O=C(CCc1cccnc1)Nc1cccc(-c2ccc(-c3nc4cc(C(F)(F)F)ccc4[nH]3)s2)c1` gave an XC50 of 953 nM.

In the case of `COc1ccc(CN2CCC(CNC(C)c3cccc4ccccc34)CC2)cc1` (stereo unspecified), the XC50 came out at 175 nM.
